Measured values as given in patent US20250034136A1 (Nimbus Wadjet, Inc., priority 2023, published 2025).
Read-outs that look alike come from different tables or passages of the source.

Experiments:
[1] = biological target: WRN (BV08), human Werner helicase (Uniprot Q14191, amino acids 517-1235 with L1074F point mutation) (Homo sapiens (Human), UniProt Q14191, L1074F); assay: WRN (BV08) ADP-Glo assay; type: biochemical; conditions: class symbols A-E, read-out: ADP-Glo_hWRN_IC50
Experimental: Bovine skin gelatin (BSG), dimethyl sulfoxide (DMSO), Pluronic F-127 and tris(2-carboxyethyl)phosphine hydrochloride solution (TCEP) were purchased from Sigma-Aldrich (St. Louis, MO) at the highest level of purity possible. […] DNA strands were annealed by heating to 95° C. for 5 minutes followed by slow cooling to room temperature. Compounds in 100% DMSO (0.1 μl) were spotted into a 384-well white polystyrene Optiplate-384 (Perkin Elmer; Waltham, MA) assay plate using a LabCyte Echo 550 (Agilent; Santa Clara, CA). DMSO (0.1 μl) was added to columns 12, rows A-H and column 24, rows I-P for the maximum signal control. […] Compounds/DMSO were preincubated for 15 minutes at 25° C. with 5 μl 2×WRN (BV08), prepared as described below, in assay buffer containing 20 mM Bicine (pH=7.5), 1 mM MgCl2, 10 mM KCl, 0.1% Pluronic F-127, 0.005% BSG, 1 mM TCEP. The reaction was initiated by the addition of 5 μl 2× substrate mixture in assay buffer and incubated for 60 minutes at 25° C. The final concentrations of the assay components were 0.15 nM WRN, 5 μM ATP, and 0.1 nM DNA duplex. The final DMSO concentration was 1% and the reference compound concentration (NSC-617145) used for the minimal signal control was 20 μM. The reaction was stopped by the addition of the ADP-Glo Kit components (Promega; Madison, WI) as directed and the relative luminescence units (RLU) were read on an Envision 2104 (Perkin Elmer; Waltham, MA). % inhibition calculation:
[formula] • Where RLU=relative luminescence units, sample=signal in sample well, and MIN and MAX are the respective minimum and maximum signal controls.
[formula] • Where top and bottom are normally allowed to float but may be fixed at 100 or 0 respectively in a 3-parameter fit. Y is the % inhibition and X is the compound concentration.
Molecular Biology and virus production. […] The baculovirus from the expression plasmid WRN—BV08 was generated from transfection and amplification following the manufacturer's instructions.
Sf9 cells grown in SF900II media were infected with 1:200 WRN—BV08 P2 virus and incubated for protein expression for 72 h at 27° C. The WRN protein was purified using the following protocol. The cell pellets were thawed and resuspended in buffer A (50 mM Tris, pH 7.5, 500 mM NaCl, 1 mM TCEP, 10% Glycerol) supplemented with 0.5% CHAPS, 1 mM PMSF, 1 μg/ml Leupeptin, 1 μg/ml Pepstatin, and the Pierce Universal Nuclease and cocktail tablet. Cleared lysates were loaded onto a Ni Sepharose™ excel column and washed with buffer A and bound protein was eluted with buffer A supplemented with 300 mM imidazole. The eluted protein was dialyzed against buffer A and digested by His-tagged TEV (1:5 ratio) overnight at 4° C. ZnCl2 was added into the sample at final 15 μM before loading onto a second Ni Sepharose™ excel column. Untagged WRN protein was eluted from the column with buffer A supplemented with 20 mM imidazole, dialyzed overnight into buffer B (50 mM Tris, pH 7.5, 1 mM TCEP, 10% Glycerol) supplemented with 150 mM NaCl and loaded onto a Heparin column. Proteins were eluted with a step gradient of buffer B supplemented with 150 mM, 200 mM, 300 mM and 500 mM NaCl. WRN containing fractions were pooled and concentrated prior to loading on to size exclusion chromatography using a HiLoad 16/600 Superdex™ 200 pg column (GE Healthcare) in buffer C (20 mM HTEPES, pH 7.5, 250 mM NaCl, 0.25 mM TCEP, […]).

[2] = test system: p21 induction in HCT116 cells; assay: p21 induction in HCT116 cells; type: cell-based; conditions: Homo sapiens, HCT-116, 24 h, read-out: P21_EC50
Experimental: The colon carcinoma cell line HCT116 was obtained from ATCC and cultured in growth medium consisting of Mccoy's 5A Medium (Gibco 16600108) supplemented with 10% FBS (Transgene FS201-02) and 100 units/mL penicillin-streptomycin (Gibco 15140122) and maintained at 37° C. under 5% CO2. On the day of seeding, 2,000 cells in 30 μL of culture media were plated per well to Poly-D-Lysine 384 Well Black Clear Plates (Biocoat 356663) and incubated overnight at 37° C. under 5% CO2. The following day, compounds were serially diluted in DMSO for a total of 11 test concentrations. […] Next, 150 nL of diluted compound was added in duplicate to the assay plate, using an Echo 655 (Labcyte). The plate was centrifuged at 500 RPM for 1 min and then incubated at 37° C. under 5% CO2 for 24 h. After 24 h, medium was removed, and cells were fixed by adding 40 μL of 4% paraformaldehyde solution to each well and incubated for 20 min at room temperature. The plate was then washed 4 times with 100 μL per well of wash buffer (PBS with 0.1% Tween-20) using a microplate washer. Next, 30 μL of ice-cold methanol was added to each well and the plate was incubated at −20° C. for 10 min. The plate was washed 4 times with 100 μL per well of wash buffer by a microplate washer, then 30 μL per well of blocking buffer (Intercept PBS blocking buffer (LI-COR 927-70001) with 0.05% Tween-20) was added and the plate was incubated at room temperature with shaking for 2 h. Next, to each test well, 20 μL of primary antibody solution (p21 Waf1/CIP (12D1) RabbitmAb (Cell Signaling Technologies 2947) diluted 1:1000 and GAPDH (D4C6R) Mouse mAb (Cell Signaling Technologies 97166) diluted 1:2000 in blocking buffer) was added and the plate was placed at 4° C., overnight. The following day, the plate was washed 5 times with 100 μL per well of wash buffer using a microplate washer for 5 min. 20 μL per well of secondary antibody (IRDye 680CW Goat anti-Mouse IgG (H+L) (LI-COR 926-68070) diluted 1: 2000 in Blocking Buffer and IRDye 800CW Goat anti-Rabbit IgG (H+L) (LI-COR 926-32211) diluted 1: 2000 in Blocking Buffer) was then added and the plate was stored for 2 h in the dark at room temperature with shaking. The plate was then washed 4 times with 100 μL per well of wash buffer again using a microplate washer. Finally, the p21 signal and the GAPDH signal were quantified using a LI-COR Odyssey CLx Imager machine reading at 800 nm and 700 nm, respectively. Each plate contained DMSO control (low control) and an internal reference WRN inhibitor (high control) respectively. […] EC50 values for each compound were generated after non-linear regression curve fitting using commercially available software.

[3] = HCT116 cells, 24 h compound incubation

WRN (BV08), human Werner helicase (Uniprot Q14191, amino acids 517-1235 with L1074F point mutation), sequence (Q14191 other isoform, or with tags, fused parts or gaps L1074F (already in the parent)): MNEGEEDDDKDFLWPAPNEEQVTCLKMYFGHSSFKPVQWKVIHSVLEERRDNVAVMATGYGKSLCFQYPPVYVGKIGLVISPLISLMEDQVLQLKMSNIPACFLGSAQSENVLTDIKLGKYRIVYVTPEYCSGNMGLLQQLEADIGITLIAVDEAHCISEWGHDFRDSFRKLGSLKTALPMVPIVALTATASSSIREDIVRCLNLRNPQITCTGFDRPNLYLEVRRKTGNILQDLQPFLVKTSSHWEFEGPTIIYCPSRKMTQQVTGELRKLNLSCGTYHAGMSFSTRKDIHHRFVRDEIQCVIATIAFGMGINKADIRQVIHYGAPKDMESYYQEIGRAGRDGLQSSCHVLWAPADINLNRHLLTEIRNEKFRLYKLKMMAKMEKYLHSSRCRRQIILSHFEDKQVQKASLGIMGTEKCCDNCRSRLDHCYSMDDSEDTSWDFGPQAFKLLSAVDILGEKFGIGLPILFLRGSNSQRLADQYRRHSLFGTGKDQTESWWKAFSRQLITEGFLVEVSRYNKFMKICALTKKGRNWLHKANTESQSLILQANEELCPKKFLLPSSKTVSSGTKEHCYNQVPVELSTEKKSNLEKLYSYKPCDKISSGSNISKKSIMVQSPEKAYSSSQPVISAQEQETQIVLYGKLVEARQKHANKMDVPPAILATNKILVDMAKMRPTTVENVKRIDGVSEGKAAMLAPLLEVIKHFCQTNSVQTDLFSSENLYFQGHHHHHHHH

Compound `CCc1c(N2CCN(C(=O)c3ncnc(C)c3O)[C@H]3CC[C@@H]32)c(=O)c2nc(N(C)C)cnc2n1CC(=O)Nc1ccc(OC(F)(F)F)cc1F` [I-210, 2-[2-(dimethylamino)-6-ethyl-7-[(1S,6S)-5-(5-hydroxy-6-methylpyrimidine-4-carbonyl)-2,5-diazabicyclo[4.2.0]octan-2-yl]-8-oxo-5H,8H-pyrido[2,3-b]pyrazin-5-yl]-N-[2-fluoro-4-(trifluoromethoxy)phenyl]acetamide] has an IC50 [1] of 5 to 50 nM and an EC50 [2, 3] of less than 500 nM.

`CCc1c(N2CCN(C(=O)c3cccc4ncoc34)[C@H]3CC[C@@H]32)c(=O)c2nc(N(C)C)cnc2n1CC(=O)Nc1ccc(C(F)(F)F)cc1Cl` [I-265, 2-{7-[(1S,6S)-5-(1,3-benzoxazole-7-carbonyl)-2,5-diazabicyclo[4.2.0]octan-2-yl]-2-(dimethylamino)-6-ethyl-8-oxo-5H,8H-pyrido[2,3-b]pyrazin-5-yl}-N-[2-chloro-4-(trifluoromethyl)phenyl]acetamide] gave an IC50 [1] of 5 to 50 nM and an EC50 [2, 3] of 2000 to 5000 nM.

In the case of `CCc1c(N2CCN(C(=O)c3c(OC)ncc(C)c3O)CC2)c(=O)c2nc(C3CC3)cnc2n1CC(=O)Nc1ccc(C(F)(F)F)cc1Cl` [I-239, N-[2-chloro-4-(trifluoromethyl)phenyl]-2-{2-cyclopropyl-6-ethyl-7-[4-(4-hydroxy-2-methoxy-5-methylpyridine-3-carbonyl)piperazin-1-yl]-8-oxo-5H,8H-pyrido[2,3-b]pyrazin-5-yl} acetamide], the IC50 [1] is reported as 5 to 50 nM and the EC50 [2, 3] is reported as less than 500 nM.

Compound `CCc1c(N2CCN(C(=O)c3ncnc(C)c3O)CC2)c(=O)c2nc3cc(C)sc3nc2n1CC(=O)NC12CC(C(F)(F)F)(C1)C2` [I-115, 2-(7-ethyl-6-(4-(5-hydroxy-6-methylpyrimidine-4-carbonyl)piperazin-1-yl)-2-methyl-5-oxopyrido[2,3-b]thieno[3,2-e]pyrazin-8(5H)-yl)-N-(3-(trifluoromethyl)bicyclo[1.1.1]pentan-1-yl)acetamide] has an IC50 [1] of 5 to 50 nM and an EC50 [2, 3] greater than 5000 nM.

`CCc1c(N2CCN(C(=O)c3ncnc(C)c3O)CC2)c(=O)c2nc(N(C)C)c(C)nc2n1CC(=O)Nc1ccc(C(F)(F)F)cc1Cl` [I-29, N-(2-chloro-4-(trifluoromethyl)phenyl)-2-(2-(dimethylamino)-6-ethyl-7-(4-(5-hydroxy-6-methylpyrimidine-4-carbonyl)piperazin-1-yl)-3-methyl-8-oxopyrido[2,3-b]pyrazin-5(8H)-yl)acetamide] gave an IC50 [1] of 5 to 50 nM and an EC50 [2] of 500 to 2000 nM.

`CCc1c(N2CCN(C(=O)c3ncnc(C)c3O)CC2)c(=O)c2nc(N3CC4(CC4)C3)cnc2n1CC(=O)Nc1ccc(C(F)(F)F)cc1Cl` [I-162, 2-(2-{5-azaspiro[2.3]hexan-5-yl}-6-ethyl-7-[4-(5-hydroxy-6-methylpyrimidine-4-carbonyl)piperazin-1-yl]-8-oxo-5H,8H-pyrido[2,3-b]pyrazin-5-yl)-N-[2-chloro-4-(trifluoromethyl)phenyl]acetamide] was tested, and the IC50 [1] was 5 to 50 nM and the EC50 [2, 3] was 500 to 2000 nM.

With `CCc1c(N2CCN(C(=O)c3ncnc(C)c3O)C[C@H]2C)c(=O)c2nc(N(C)C)cnc2n1CC(=O)Nc1ccc(C(F)(F)F)cc1Cl` [I-99, (R)—N-(2-chloro-4-(trifluoromethyl)phenyl)-2-(2-(dimethylamino)-6-ethyl-7-(4-(5-hydroxy-6-methylpyrimidine-4-carbonyl)-2-methylpiperazin-1-yl)-8-oxopyrido[2,3-b]pyrazin-5(8H)-yl)acetamide] the IC50 [1] was 5 to 50 nM and the EC50 [2, 3] was greater than 5000 nM.

`CCc1c(N2CCN(C(=O)c3cnn(C)c3)CC2)c(=O)c2ncc(C)nc2n1CC(=O)Nc1ccc(C(F)(F)F)cc1Cl` [I-2, N-(2-chloro-4-(trifluoromethyl)phenyl)-2-(6-ethyl-3-methyl-7-(4-(1-methyl-1H-pyrazole-4-carbonyl)piperazin-1-yl)-8-oxopyrido[2,3-b]pyrazin-5(8H)-yl)acetamide] gave an IC50 [1] of 50 to 100 nM and an EC50 [2, 3] greater than 5000 nM.

Compound `CCc1c(N2CCN(C(=O)c3ncnc(C)c3O)[C@H]3CC[C@@H]32)c(=O)c2nc(N3CCCC3=O)cnc2n1CC(=O)Nc1ccc(C(F)(F)F)cc1Cl` [I-253, N-[2-chloro-4-(trifluoromethyl)phenyl]-2-{6-ethyl-7-[(1S,6S)-5-(5-hydroxy-6-methylpyrimidine-4-carbonyl)-2,5-diazabicyclo[4.2.0]octan-2-yl]-8-oxo-2-(2-oxopyrrolidin-1-yl)-5H,8H-pyrido[2,3-b]pyrazin-5-yl}acetamide] has an IC50 [1] of 5 to 50 nM and an EC50 [2, 3] of less than 500 nM.

Work on `CCc1c(N2CCN(C(=O)c3ncnc(C)c3O)CC2)c(=O)c2nc(-c3cnn(C)c3)cnc2n1CC(=O)Nc1ccc(C(F)(F)F)cc1Cl` [I-79, N-(2-chloro-4-(trifluoromethyl)phenyl)-2-(6-ethyl-7-(4-(5-hydroxy-6-methylpyrimidine-4-carbonyl)piperazin-1-yl)-2-(1-methyl-1H-pyrazol-4-yl)-8-oxopyrido[2,3-b]pyrazin-5(8H)-yl)acetamide] yielded an IC50 [1] of 5 to 50 nM and an EC50 [2, 3] greater than 5000 nM.

In the case of `CCc1c(N2CCN(C(=O)c3ncnc(C)c3O)[C@H]3CC[C@@H]32)c(=O)c2nc(N(C)[C@H]3CC[C@@H](O)C3)cnc2n1CC(=O)Nc1ccc(C(F)(F)F)cc1Cl` [I-302, N-[2-chloro-4-(trifluoromethyl)phenyl]-2-{6-ethyl-7-[(1S,6S)-5-(5-hydroxy-6-methylpyrimidine-4-carbonyl)-2,5-diazabicyclo[4.2.0]octan-2-yl]-2-{[(1S,3R)-3-hydroxycyclopentyl](methyl)amino}-8-oxo-5H,8H-pyrido[2,3-b]pyrazin-5-yl}acetamide], the IC50 [1] is reported as 5 to 50 nM and the EC50 [2, 3] is reported as less than 500 nM.
